{"source": "the supplement of paper PMC10307832", "experiment_in_all_cases": "relative viability (nuclei count vs DMSO), 5 days (fraction); higher = more cells survive", "key": {"CAL-12T": {"system": "CAL-12T", "method_in_brief": "(§1)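 Each reported value is a median over duplicate plates. It expresses relative viability: treated-well nuclei count divided by vehicle-well nuclei count. Lung cancer cell lines in 1536-well plates were dosed by pin tool a day after seeding, alone with one drug or with a fixed anchor-drug dose plus five library-drug doses (not always all listed) in √10 steps, and nuclei were counted after 5 days.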"}, "NCI-H1975": {"system": "NCI-H1975", "method_in_brief": "as §1"}, "NCI-H520": {"system": "NCI-H520", "method_in_brief": "as §1"}, "NCI-H596": {"system": "NCI-H596", "method_in_brief": "as §1"}, "LOU-NH91": {"system": "LOU-NH91", "method_in_brief": "as §1"}, "LCLC-103H": {"system": "LCLC-103H", "method_in_brief": "as §1"}, "ABC-1": {"system": "ABC-1", "method_in_brief": "as §1"}, "NCI-H2085": {"system": "NCI-H2085", "method_in_brief": "as §1"}, "NCI-H727": {"system": "NCI-H727", "method_in_brief": "as §1"}, "NCI-H647": {"system": "NCI-H647", "method_in_brief": "as §1"}, "NCI-H838": {"system": "NCI-H838", "method_in_brief": "as §1"}, "NCI-H1734": {"system": "NCI-H1734", "method_in_brief": "as §1"}, "NCI-H2126": {"system": "NCI-H2126", "method_in_brief": "as §1"}, "BEN": {"system": "BEN", "method_in_brief": "as §1"}, "RERF-LC-KJ": {"system": "RERF-LC-KJ", "method_in_brief": "as §1"}, "NCI-H460": {"system": "NCI-H460", "method_in_brief": "as §1"}, "NCI-H1944": {"system": "NCI-H1944", "method_in_brief": "as §1"}, "NCI-H1666": {"system": "NCI-H1666", "method_in_brief": "as §1"}, "NCI-H661": {"system": "NCI-H661", "method_in_brief": "as §1"}, "NCI-H1651": {"system": "NCI-H1651", "method_in_brief": "as §1"}, "A-427": {"system": "A-427", "method_in_brief": "as §1"}, "HARA": {"system": "HARA", "method_in_brief": "as §1"}}}
{"smiles": "CN1CCN(CCOc2cc(OC3CCOCC3)c3c(Nc4c(Cl)ccc5c4OCO5)ncnc3c2)CC1", "note": "[Saracatinib] + Cc1nc(NC(=O)N2CCC[C@H]2C(N)=O)sc1-c1ccnc(C(C)(C)C(F)(F)F)c1 [Alpelisib] (partner 2 µM)", "values": [{"measurement": "relative viability", "setting": "CAL-12T; first compound 0.02 µM", "value": 1.28}, {"measurement": "relative viability", "setting": "CAL-12T; first compound 0.2 µM", "value": 1.06}, {"measurement": "relative viability", "setting": "CAL-12T; first compound 0.6325 µM", "value": 1.33}, {"measurement": "relative viability", "setting": "CAL-12T; first compound 2 µM", "value": 0.927}, {"measurement": "relative viability", "setting": "NCI-H1975; first compound 0.02 µM", "value": 0.671}, {"measurement": "relative viability", "setting": "NCI-H1975; first compound 0.6325 µM", "value": 0.585}, {"measurement": "relative viability", "setting": "NCI-H1975; first compound 2 µM", "value": 0.367}, {"measurement": "relative viability", "setting": "NCI-H520; first compound 0.02 µM", "value": 0.901}, {"measurement": "relative viability", "setting": "NCI-H520; first compound 0.2 µM", "value": 0.779}, {"measurement": "relative viability", "setting": "NCI-H520; first compound 0.6325 µM", "value": 0.545}, {"measurement": "relative viability", "setting": "NCI-H520; first compound 2 µM", "value": 0.493}, {"measurement": "relative viability", "setting": "NCI-H596; first compound 0.02 µM", "value": 0.459}, {"measurement": "relative viability", "setting": "NCI-H596; first compound 0.2 µM", "value": 0.424}, {"measurement": "relative viability", "setting": "NCI-H596; first compound 0.6325 µM", "value": 0.448}, {"measurement": "relative viability", "setting": "NCI-H596; first compound 2 µM", "value": 0.403}, {"measurement": "relative viability", "setting": "LOU-NH91; first compound 0.02 µM", "value": 0.683}, {"measurement": "relative viability", "setting": "LOU-NH91; first compound 0.2 µM", "value": 0.5}, {"measurement": "relative viability", "setting": "LOU-NH91; first compound 0.6325 µM", "value": 0.554}, {"measurement": "relative viability", "setting": "LOU-NH91; first compound 2 µM", "value": 0.449}, {"measurement": "relative viability", "setting": "LCLC-103H; first compound 0.02 µM", "value": 0.972}, {"measurement": "relative viability", "setting": "LCLC-103H; first compound 0.2 µM", "value": 0.831}, {"measurement": "relative viability", "setting": "LCLC-103H; first compound 0.6325 µM", "value": 0.899}, {"measurement": "relative viability", "setting": "LCLC-103H; first compound 2 µM", "value": 0.893}, {"measurement": "relative viability", "setting": "ABC-1; first compound 0.02 µM", "value": 0.854}, {"measurement": "relative viability", "setting": "ABC-1; first compound 0.2 µM", "value": 1.06}, {"measurement": "relative viability", "setting": "ABC-1; first compound 0.6325 µM", "value": 0.981}, {"measurement": "relative viability", "setting": "ABC-1; first compound 2 µM", "value": 0.857}, {"measurement": "relative viability", "setting": "NCI-H2085; first compound 0.02 µM", "value": 0.957}, {"measurement": "relative viability", "setting": "NCI-H2085; first compound 0.2 µM", "value": 0.85}, {"measurement": "relative viability", "setting": "NCI-H2085; first compound 0.6325 µM", "value": 0.91}, {"measurement": "relative viability", "setting": "NCI-H2085; first compound 2 µM", "value": 0.888}, {"measurement": "relative viability", "setting": "NCI-H727; first compound 0.02 µM", "value": 0.558}, {"measurement": "relative viability", "setting": "NCI-H727; first compound 0.2 µM", "value": 0.461}, {"measurement": "relative viability", "setting": "NCI-H727; first compound 0.6325 µM", "value": 0.334}, {"measurement": "relative viability", "setting": "NCI-H727; first compound 2 µM", "value": 0.308}, {"measurement": "relative viability", "setting": "NCI-H647; first compound 0.02 µM", "value": 1.09}, {"measurement": "relative viability", "setting": "NCI-H647; first compound 0.2 µM", "value": 0.83}, {"measurement": "relative viability", "setting": "NCI-H647; first compound 0.6325 µM", "value": 0.635}, {"measurement": "relative viability", "setting": "NCI-H647; first compound 2 µM", "value": 0.36}, {"measurement": "relative viability", "setting": "NCI-H838; first compound 0.02 µM", "value": 0.993}, {"measurement": "relative viability", "setting": "NCI-H838; first compound 0.2 µM", "value": 0.929}, {"measurement": "relative viability", "setting": "NCI-H838; first compound 0.6325 µM", "value": 0.771}, {"measurement": "relative viability", "setting": "NCI-H838; first compound 2 µM", "value": 0.803}, {"measurement": "relative viability", "setting": "NCI-H1734; first compound 0.02 µM", "value": 0.669}, {"measurement": "relative viability", "setting": "NCI-H1734; first compound 0.6325 µM", "value": 0.646}, {"measurement": "relative viability", "setting": "NCI-H1734; first compound 2 µM", "value": 0.507}, {"measurement": "relative viability", "setting": "NCI-H2126; first compound 0.02 µM", "value": 0.751}, {"measurement": "relative viability", "setting": "NCI-H2126; first compound 0.2 µM", "value": 0.654}, {"measurement": "relative viability", "setting": "NCI-H2126; first compound 0.6325 µM", "value": 0.749}, {"measurement": "relative viability", "setting": "NCI-H2126; first compound 2 µM", "value": 0.622}, {"measurement": "relative viability", "setting": "BEN; first compound 0.02 µM", "value": 1.08}, {"measurement": "relative viability", "setting": "BEN; first compound 0.2 µM", "value": 1.03}, {"measurement": "relative viability", "setting": "BEN; first compound 0.6325 µM", "value": 1.07}, {"measurement": "relative viability", "setting": "BEN; first compound 2 µM", "value": 0.85}, {"measurement": "relative viability", "setting": "RERF-LC-KJ; first compound 0.02 µM", "value": 0.894}, {"measurement": "relative viability", "setting": "RERF-LC-KJ; first compound 0.2 µM", "value": 0.954}, {"measurement": "relative viability", "setting": "RERF-LC-KJ; first compound 0.6325 µM", "value": 0.831}, {"measurement": "relative viability", "setting": "RERF-LC-KJ; first compound 2 µM", "value": 0.662}, {"measurement": "relative viability", "setting": "NCI-H460; first compound 0.02 µM", "value": 0.574}, {"measurement": "relative viability", "setting": "NCI-H460; first compound 0.2 µM", "value": 0.347}, {"measurement": "relative viability", "setting": "NCI-H460; first compound 0.6325 µM", "value": 0.289}, {"measurement": "relative viability", "setting": "NCI-H460; first compound 2 µM", "value": 0.175}, {"measurement": "relative viability", "setting": "NCI-H1944; first compound 0.02 µM", "value": 0.847}, {"measurement": "relative viability", "setting": "NCI-H1944; first compound 0.6325 µM", "value": 0.808}, {"measurement": "relative viability", "setting": "NCI-H1944; first compound 2 µM", "value": 0.524}, {"measurement": "relative viability", "setting": "NCI-H1666; first compound 0.02 µM", "value": 1.22}, {"measurement": "relative viability", "setting": "NCI-H1666; first compound 0.2 µM", "value": 0.936}, {"measurement": "relative viability", "setting": "NCI-H1666; first compound 0.6325 µM", "value": 1.2}, {"measurement": "relative viability", "setting": "NCI-H1666; first compound 2 µM", "value": 0.837}, {"measurement": "relative viability", "setting": "NCI-H661; first compound 0.02 µM", "value": 0.838}, {"measurement": "relative viability", "setting": "NCI-H661; first compound 0.2 µM", "value": 0.329}, {"measurement": "relative viability", "setting": "NCI-H661; first compound 0.6325 µM", "value": 0.357}, {"measurement": "relative viability", "setting": "NCI-H661; first compound 2 µM", "value": 0.377}, {"measurement": "relative viability", "setting": "NCI-H1651; first compound 0.02 µM", "value": 1.02}, {"measurement": "relative viability", "setting": "NCI-H1651; first compound 0.2 µM", "value": 0.729}, {"measurement": "relative viability", "setting": "NCI-H1651; first compound 0.6325 µM", "value": 0.913}, {"measurement": "relative viability", "setting": "NCI-H1651; first compound 2 µM", "value": 0.804}, {"measurement": "relative viability", "setting": "A-427; first compound 0.02 µM", "value": 1.09}, {"measurement": "relative viability", "setting": "A-427; first compound 0.2 µM", "value": 0.916}, {"measurement": "relative viability", "setting": "A-427; first compound 0.6325 µM", "value": 1.07}, {"measurement": "relative viability", "setting": "A-427; first compound 2 µM", "value": 1.01}, {"measurement": "relative viability", "setting": "HARA; first compound 0.02 µM", "value": 0.904}, {"measurement": "relative viability", "setting": "HARA; first compound 0.6325 µM", "value": 0.707}, {"measurement": "relative viability", "setting": "HARA; first compound 2 µM", "value": 0.513}]}
